Results on three compounds are retold here after PMC9649518, “Knockout of ABC transporters by CRISPR/Cas9 contributes to reliable and accurate transporter substrate identification for drug discovery” (Frontiers in Pharmacology, 2022).

Data set [1] can be described thus: Bidirectional transport assay across P-gp/MRP2 double KO Caco-2 monolayers. To be noted: human, pH 7.4. (In general: Caco-2 cells form a polarised layer with tight junctions and transporters.)
Protocol: (§4) For MRP2, the nonfluorescent compound CDCFDA was used as the probe substrate. […] After treatment, samples were transferred to black-walled 96-well assay plates. A standard curve of 2-fold serial dilution from 10 µM CDCF was generated. The CDCF concentration was measured based on the fluorescence in a microplate fluorescence reader (Tecan, Switzerland) set at 485 nm and 530 nm for the excitation and emission wavelengths, respectively.
Data set [2] has as its system MRP2. Further details: method as in Bierman et al., 2010; Holmstock et al., 2018. The conditions noted are these: 5 μM and 10 µM; ref Bierman et al., 2010; Holmstock et al., 2018; cited from earlier work.
The nature of data set [3]: Bidirectional transport assay across MRP2 KO Caco-2 monolayers. The conditions noted are these: human; for Papp A→B at 1 h, 5 μM: pH 7.4, Papp A-to-B, Caco^MRP2−/−, 5 μM substrate, 37°C, HBSS pH 7.4, n = 3.
Protocol: as §4
Data set [4] in a line: Bidirectional transport assay across BCRP KO Caco-2 monolayers. To be noted: human; for Papp A→B at 1 h, 5 μM / Papp B→A at 1 h, 5 μM: pH 7.4.
Protocol: as §4
The nature of data set [5]: Bidirectional transport assay across P-gp/BCRP double KO Caco-2 monolayers. To be noted: human, pH 7.4.
Protocol: as §4
In data set [6] the test system is MDCKⅡ-MDR1. On the set-up: method as in Agarwal et al., 2007. To be noted: MDCKⅡ-MDR1 treated with P-gp inhibitors; ref Agarwal et al., 2007; cited from earlier work.
Data set [7] can be described thus: Bidirectional transport assay across Caco-2 WT monolayers. To be noted: human; for Papp A→B at 1 h, 5 μM / Papp B→A at 1 h, 5 μM: Caco-2, pH 7.4.
Protocol: as §4
The nature of data set [8]: Bidirectional transport assay across P-gp KO Caco-2 monolayers. To be noted: human, pH 7.4.
Data set [9] can be described thus: Bidirectional transport assay across MRP2/BCRP double KO Caco-2 monolayers. To be noted: human; for Papp A→B at 1 h, 5 μM: pH 7.4, Papp A-to-B, Caco^MRP2−/−BCRP−/−, 5 μM substrate, 37°C, HBSS pH 7.4, n = 3.
Protocol: as §4
For data set [10], the system named is MRP2. Further details: method as in Koenig et al., 2010; Swedrowska et al., 2017. To be noted: 50 µM; Caco-2 cells; ref Koenig et al., 2010; Swedrowska et al., 2017; cited from earlier work.
In data set [11] the test system is Caco^BCRP−/− cells. The data set can be described thus: Bidirectional transport assay across BCRP KO Caco-2 monolayers. To be noted: Caco^BCRP−/−; 5 μM substrate; n = 3.
Protocol: as §4
Data set [12] in a line: Bidirectional transport assay, P-gp single- and double-KO cells taken together. The data set is classed as in vitro ADME. The conditions noted are these: human, pH 7.4, 5 μM substrate. How it is done: (§1) The medium was replaced every second day.
(§2) All these studies were conducted by following similar procedures. […] Then, HBSS was aspirated from both sides.
(§3) The flow rate was 0.3 mL/min.

Data set [13] addresses T1, P-gp, BCRP, and MRP2 efflux transporters (Homo sapiens, UniProt Q92887).
T1 construct: endogenous in cells; host or cells: Caco-2 WT and CRISPR/Cas9 transporter-knockout Caco-2 clones
The data set can be described thus: Transporter substrate identification with the panel of WT and KO Caco-2 cells. The data set is classed as in vitro ADME. The conditions noted are these: 5 μM. How it is done:
as §1, §2, §3

Data set [14] concerns P-gp, BCRP, and MRP2 efflux transporters. The data set is described as above. To be noted: 5 μM; ER ≥ 2 suggests active transport. The format is in vitro ADME, human. How it is done: as §1, §2, §3

T1 sequence (Q92887 whole entry): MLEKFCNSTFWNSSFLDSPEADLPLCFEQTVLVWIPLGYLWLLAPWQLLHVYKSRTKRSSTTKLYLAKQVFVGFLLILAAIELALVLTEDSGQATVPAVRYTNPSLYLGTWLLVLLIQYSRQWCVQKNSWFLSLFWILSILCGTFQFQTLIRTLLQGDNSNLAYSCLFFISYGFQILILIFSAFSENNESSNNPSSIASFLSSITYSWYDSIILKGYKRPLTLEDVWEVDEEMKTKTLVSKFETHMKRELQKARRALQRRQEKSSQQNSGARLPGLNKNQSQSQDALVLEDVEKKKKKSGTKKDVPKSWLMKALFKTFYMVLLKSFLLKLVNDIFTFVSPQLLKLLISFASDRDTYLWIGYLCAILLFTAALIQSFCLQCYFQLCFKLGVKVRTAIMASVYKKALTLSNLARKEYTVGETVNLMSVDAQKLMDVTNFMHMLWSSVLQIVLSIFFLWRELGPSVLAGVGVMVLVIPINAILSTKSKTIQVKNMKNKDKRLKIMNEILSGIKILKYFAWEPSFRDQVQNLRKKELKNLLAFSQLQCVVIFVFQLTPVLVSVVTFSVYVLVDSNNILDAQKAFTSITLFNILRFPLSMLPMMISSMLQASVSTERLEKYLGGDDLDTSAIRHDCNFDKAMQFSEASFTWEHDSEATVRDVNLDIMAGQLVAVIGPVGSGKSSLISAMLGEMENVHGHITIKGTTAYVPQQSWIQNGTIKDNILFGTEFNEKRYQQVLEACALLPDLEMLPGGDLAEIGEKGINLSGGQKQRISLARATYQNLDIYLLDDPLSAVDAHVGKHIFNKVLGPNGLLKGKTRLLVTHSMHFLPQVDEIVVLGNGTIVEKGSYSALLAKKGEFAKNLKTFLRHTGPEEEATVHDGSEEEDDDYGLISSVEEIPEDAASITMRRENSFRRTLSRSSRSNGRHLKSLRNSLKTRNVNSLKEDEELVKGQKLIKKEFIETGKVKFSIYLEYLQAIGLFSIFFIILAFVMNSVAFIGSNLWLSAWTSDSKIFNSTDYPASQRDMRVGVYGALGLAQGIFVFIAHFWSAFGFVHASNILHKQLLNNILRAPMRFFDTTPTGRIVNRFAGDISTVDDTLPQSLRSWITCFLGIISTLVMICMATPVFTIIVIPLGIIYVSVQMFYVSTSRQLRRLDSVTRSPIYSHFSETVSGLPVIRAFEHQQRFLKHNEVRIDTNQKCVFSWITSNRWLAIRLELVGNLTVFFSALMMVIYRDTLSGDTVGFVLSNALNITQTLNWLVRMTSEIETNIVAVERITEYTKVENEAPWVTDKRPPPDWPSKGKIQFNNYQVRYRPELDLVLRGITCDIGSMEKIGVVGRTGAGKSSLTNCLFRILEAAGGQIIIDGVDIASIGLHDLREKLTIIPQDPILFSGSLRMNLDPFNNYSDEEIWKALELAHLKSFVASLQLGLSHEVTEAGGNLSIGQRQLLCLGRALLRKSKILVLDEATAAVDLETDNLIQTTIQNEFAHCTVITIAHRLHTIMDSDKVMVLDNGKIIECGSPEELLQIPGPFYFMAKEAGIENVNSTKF

Regarding `Cc1cccc(C)c1OCC(=O)N[C@@H](Cc1ccccc1)[C@@H](O)C[C@H](Cc1ccccc1)NC(=O)[C@H](C(C)C)N1CCCNC1=O` [Lopinavir, lopinavir], the Papp A→B (commonly how fast a substance crosses the layer from the apical side) at 1 h, 5 μM in [1] is 13.8 ± 1.01 ×10⁻⁶ cm/s; in data set [3] it was around 1 ×10⁻⁶ cm/s; in [4], 5.79 ± 0.64 ×10⁻⁶ cm/s; in data set [5] it was 15.2 ± 1.44 ×10⁻⁶ cm/s; in data set [7], 3.25 ± 0.59 ×10⁻⁶ cm/s; in data set [8] it was 10.2 ± 0.27 ×10⁻⁶ cm/s. In data set [9], this compound returned a Papp A→B at 1 h, 5 μM of around 1 ×10⁻⁶ cm/s. In addition, the Papp B→A – broadly, how fast a substance crosses the layer from the basolateral side – at 1 h, 5 μM in data set [1] was 11.5 ± 0.96 ×10⁻⁶ cm/s; in [3] (pH 7.4) it was 20.1 ± 2.26 ×10⁻⁶ cm/s; in data set [4], 18.4 ± 0.98 ×10⁻⁶ cm/s; in [5], 10.3 ± 0.82 ×10⁻⁶ cm/s; in [7] it was 24.5 ± 2.04 ×10⁻⁶ cm/s; in data set [8], 6.59 ± 0.62 ×10⁻⁶ cm/s. The compound also yielded a Papp B→A at 1 h, 5 μM in [9] (pH 7.4) of 19 ± 3.05 ×10⁻⁶ cm/s. Besides, the “Transport activity of MRP2” value in [2] was “inhibited”. In addition, the “Increase of Papp (A-B)” value in data set [6] is given as “up to 6 folds”.
`O=C1OC(c2ccc(O)c(S(=O)(=O)O)c2)(c2ccc(O)c(S(=O)(=O)O)c2)c2c(Br)c(Br)c(Br)c(Br)c21` [bromsulphthalein]: the “Effect on darunavir efflux transport” value in [10] is “significant suppression”.
As to `Cc1c(O)cccc1C(=O)N[C@@H](CSc1ccccc1)[C@H](O)CN1C[C@H]2CCCC[C@H]2C[C@H]1C(=O)NC(C)(C)C` [Nelfinavir], the Papp A→B at 1 h, 5 μM is 4.23 ± 0.22 ×10⁻⁶ cm/s in data set [1]; 4.53 ± 0.26 ×10⁻⁶ cm/s in data set [3]; 2.21 ± 0.41 ×10⁻⁶ cm/s in data set [4]; 7.54 ± 0.24 ×10⁻⁶ cm/s in [5]; 2.78 ± 0.39 ×10⁻⁶ cm/s in [7]; 4.17 ± 0.17 ×10⁻⁶ cm/s in [8]. The compound also had a Papp A→B at 1 h, 5 μM in data set [9] of 2.79 ± 0.28 ×10⁻⁶ cm/s. In addition, the Papp B→A at 1 h, 5 μM was 4.51 ± 0.63 ×10⁻⁶ cm/s in [1]; 14.7 ± 0.99 ×10⁻⁶ cm/s in data set [3] (pH 7.4); 4.88 ± 0.17 ×10⁻⁶ cm/s in data set [4]; 3.22 ± 0.62 ×10⁻⁶ cm/s in data set [5]; 12.2 ± 1.86 ×10⁻⁶ cm/s in data set [7]; 2.18 ± 0.43 ×10⁻⁶ cm/s in data set [8]. The same compound came in with a Papp B→A at 1 h, 5 μM in [9] (pH 7.4) of 17.9 ± 1.89 ×10⁻⁶ cm/s. Further, the efflux ratio (usually a quotient of directional permeabilities that is used to spot active efflux) at 1 h, 5 μM in data set [1] is 1.07 ± 0.42; in data set [3] (pH 7.4), 3.25 ± 0.31; in [4] (pH 7.4, Efflux ratio, Caco^BCRP−/−, 5 μM substrate, n = 3) it was around 2; in data set [5], 0.43 ± 0.09; in data set [12], around 1; in [7] (Caco-2, pH 7.4, Efflux ratio, WT Caco-2, 5 μM substrate, Papp(B-to-A)/Papp(A-to-B), n = 3) it was 4.47 ± 1.19. The efflux ratio at 1 h, 5 μM was found to be 0.41 ± 0.04 in data set [8] and 6.41 ± 0.35 in data set [9] (pH 7.4). Moreover, the Efflux ratio in data set [11] is on record as 2.25 ±0.34. The “Substrate of MRP2 (conclusion from ERs in KO cells)” value in data set [13] is “cannot mediate”. Further, in data set [14], the “Efflux transporter substrate identification (conclusion from ERs in WT and KO cells)” value is “P-gp was the main transporter”.
